Measured values: patent US20250312469A1 (CANGET BIOTEKPHARMA, priority 2024, published 2025)
Several values for one entry are separate records, joined by “and”; a condition that tells them apart may be missing. Equal entries are not always repeated.

Assays:
in vitro [1] = settings: both, human, s9
[2] = HPβCD-FL118 complex dissolution test; assay type: physicochemical; settings: 37° C.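 Note: 20 mL buffer stirred at 100 rpm.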
Method: The collected samples were analyzed for the concentrations of the supernatants by HPLC.

Blood partitioning = settings: human whole blood
CYP3A = assay: in vitro; settings: human, microsomes, pH 7.4
Method: (§1) The CYP reaction was initiated by adding a CYP probe substrate and incubating at 37° C. for 10-20 minutes, depending on the individual CYP isoform. The reaction was terminated with the addition of 400 μL ice-cold acetonitrile (ACN). […] Positive controls were performed in parallel using a known inhibitor of the individual CYP isoform. […] The samples were then transferred to 96-well plates and analyzed by LC-MS/MS (Appendix 1).

CYP1A2 mRNA = assay: CYP induction (mRNA) in fresh human hepatocytes; settings: human, 3 days, 50 µM
Source text: (§2) (2) CYP positive inducers (Table 58a) and Williams' Medium E (WME) were purchased from Sigma-Aldrich (St. Louis, MO, USA). Dulbecco's phosphate-buffered saline (DPBS, pH 7.4) was purchased from Invitrogen (Carlsbad, CA, USA). Hepatocyte culture medium (serum-free) for CYP induction was purchased from XenoTech (catalog #K2300, Lenexa, KS, USA). The CellTiter 96 AQueous ONE Solution Cell Proliferation Assay was obtained from Promega (Madison, WI, USA). All other chemicals and reagents were of analytical grade or higher. (3) Fresh human hepatocytes (Table 58b) seeded at ˜0.15 million cells/well in 48-well plates (˜0.75 million cells/mL) were purchased from Thermo Fisher Scientific (Grand Island, NY, USA) and BioreclamationIVT (Baltimore, MD, USA).
(§3) Vehicle controls were treated in parallel with hepatocyte culture medium. […] (2) After the CYP induction treatment, the cells were used for a cell viability assay. […] The absorbance of formazan, which is proportional to the number of viable cells, was measured spectrophotometrically using the CellTiter 96 AQueous ONE Solution Cell Proliferation Assay. […] (3) Total RNA was isolated from the treated cells using the RNeasy mini kit (Qiagen, Valencia, CA, USA) and treated with RNase-free DNase (Qiagen) following the manufacturer's protocols. The concentration of RNA was determined using a Qubit Fluorometer with a Qubit RNA HS assay kit (Invitrogen). cDNA was synthesized from up to 1 μg of the total RNA harvested from the cells using a QuantiTect RT kit (Qiagen). Analysis of gene expression by qPCR was performed using the LightCycler 480 System (Roche Diagnostics Corporation, Indianapolis, IN, USA).

CYP2B6 mRNA = assay: CYP induction (mRNA) in fresh human hepatocytes; settings: human
Source text: as §2, §3

human hepatocytes = assay: Cell viability (MTS) after CYP induction treatment; settings: donor 2, control inducers (OME, PB, RIF)
Method: as §3

[3] = system: L5178Y TK+/− mouse lymphoma cells; assay: Mouse Lymphoma Assay (MLA); settings: for Avg. MF (Mutant Frequency) / Avg. SG: 24 h treatment, −S9
Method: The cells were prepared in Fischer's or RPMI media supplemented with 10% heat-inactivated horse serum, penicillin-streptomycin, Lglutamine, sodium pyruvate and Pluronic F68. In the initial assay, prior to use in the test, the culture was purged of preexisting TK−/− mutations by exposure to THMG treated medium for 1 day, followed by a transfer to THG medium for 1 to 2 days. This was performed 5 to 8 days prior to testing. In the expanded assay a vial of frozen cells was thawed and used within 5 to 8 days of growth. No washing was needed because the cells were purged of preexisting TK−/− mutations by exposure to THMG treated medium for 1 day and then THG medium for 1 day prior to freezing. […] Colonies were counted using an automated colony counter or manually. After 4 or 24 hours of exposure, the cells were grown for recovery and expression for approximately 48 hours before plated in TFT cloning media. A second set of plates were prepared without TFT to assess viability of cells following treatment. […] Colonies observed on the TFT plate were defined as small or large colonies. […] (3) Of note, the metabolic activation system in this assay consisted of a rat liver homogenate (S-9 microsomal fraction), which was delivered to the test system in the presence of a core mix consisting of NADP and cofactors for NADPH-supported oxidation. The S9 was prepared using the following recipe (per treatment tube); 1 mL of 20 mg/mL S9, 32 mg of NADP, 60 mg of isocitric acid, 40 μL of calcium chloride (CaCl2) and 3.0 mL of cell cultural media. All treatments were performed in duplicate. The treatment tubes were placed in a CO2 incubator at 37±1° C. with continuous agitation.

CYP2B6 = target: T1, CYP2B6 (Homo sapiens, UniProt P20813); assay: in vitro; settings: human, microsomes, pH 7.4
T1 sequence (P20813 1-491): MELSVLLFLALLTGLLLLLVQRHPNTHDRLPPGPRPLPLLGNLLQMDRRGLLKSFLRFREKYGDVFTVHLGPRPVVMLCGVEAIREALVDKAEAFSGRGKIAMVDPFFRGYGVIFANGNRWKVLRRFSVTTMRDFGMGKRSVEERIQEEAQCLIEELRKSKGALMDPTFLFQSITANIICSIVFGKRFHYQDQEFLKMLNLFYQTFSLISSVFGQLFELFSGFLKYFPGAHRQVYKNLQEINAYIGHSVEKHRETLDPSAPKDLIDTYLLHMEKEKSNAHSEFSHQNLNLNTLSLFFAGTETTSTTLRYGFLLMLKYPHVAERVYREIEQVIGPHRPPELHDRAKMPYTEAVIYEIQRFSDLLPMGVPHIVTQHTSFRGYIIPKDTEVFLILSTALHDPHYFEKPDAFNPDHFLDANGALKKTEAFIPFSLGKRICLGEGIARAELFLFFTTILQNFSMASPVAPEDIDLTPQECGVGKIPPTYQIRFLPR
Method: as §1

in vitro [4] = assay: in vitro
[5] = Liver microsome stability; settings: human liver microsome; control compound
P-gp = P-gp (Homo sapiens, UniProt P08183); settings: Caco-2; digoxin as substrate; 1.0 μM FL118 or 1.0 μM Valspodar
Sequence of P-gp (P08183 whole entry): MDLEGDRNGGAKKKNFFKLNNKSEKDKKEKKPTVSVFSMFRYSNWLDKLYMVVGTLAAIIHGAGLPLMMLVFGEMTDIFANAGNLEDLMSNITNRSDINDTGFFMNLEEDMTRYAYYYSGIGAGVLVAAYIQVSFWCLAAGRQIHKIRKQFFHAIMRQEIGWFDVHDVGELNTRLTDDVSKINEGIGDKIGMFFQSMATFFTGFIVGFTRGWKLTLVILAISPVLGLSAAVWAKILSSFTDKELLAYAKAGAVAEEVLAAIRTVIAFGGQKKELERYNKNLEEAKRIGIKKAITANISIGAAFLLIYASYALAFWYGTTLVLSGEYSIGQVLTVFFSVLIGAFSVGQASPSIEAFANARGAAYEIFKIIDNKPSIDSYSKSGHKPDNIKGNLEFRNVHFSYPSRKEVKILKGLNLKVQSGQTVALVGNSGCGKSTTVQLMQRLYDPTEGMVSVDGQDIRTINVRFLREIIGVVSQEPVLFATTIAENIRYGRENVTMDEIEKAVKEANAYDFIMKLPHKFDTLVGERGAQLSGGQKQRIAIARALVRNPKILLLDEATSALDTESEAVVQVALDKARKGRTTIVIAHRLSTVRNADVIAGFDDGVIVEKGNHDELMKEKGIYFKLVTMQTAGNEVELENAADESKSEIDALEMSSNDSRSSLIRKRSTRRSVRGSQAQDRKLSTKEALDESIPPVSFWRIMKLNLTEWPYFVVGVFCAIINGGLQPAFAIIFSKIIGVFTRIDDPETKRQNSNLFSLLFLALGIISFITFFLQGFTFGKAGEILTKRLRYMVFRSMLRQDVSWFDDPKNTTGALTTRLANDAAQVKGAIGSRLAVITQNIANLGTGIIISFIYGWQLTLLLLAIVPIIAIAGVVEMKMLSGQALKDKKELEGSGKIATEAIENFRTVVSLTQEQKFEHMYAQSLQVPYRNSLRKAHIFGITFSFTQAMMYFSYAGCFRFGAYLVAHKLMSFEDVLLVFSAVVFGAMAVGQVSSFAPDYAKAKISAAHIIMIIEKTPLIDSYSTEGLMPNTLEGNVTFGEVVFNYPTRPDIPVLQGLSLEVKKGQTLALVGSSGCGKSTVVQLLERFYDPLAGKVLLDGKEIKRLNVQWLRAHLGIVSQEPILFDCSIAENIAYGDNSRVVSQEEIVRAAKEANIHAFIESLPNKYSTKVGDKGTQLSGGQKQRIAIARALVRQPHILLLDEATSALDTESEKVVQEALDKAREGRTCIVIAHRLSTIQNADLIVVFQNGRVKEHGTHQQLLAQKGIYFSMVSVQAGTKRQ

O=c1ccc2ccc(O)cc2o1 [7-hydroxycoumarin, reference compound]
microsomal CLint (in vitro [1]): 57.3 µL/min/mg

CC[C@@]1(O)C(=O)OCc2c1cc1n(c2=O)Cc2cc3cc4c(cc3nc2-1)OCO4 [API]
Concentration (dissolution) ([2]; pH 1.2, 5 min): 430 ng/mL
Concentration (dissolution) ([2]; pH 1.2, 10 min): 1550 ng/mL
Concentration (dissolution) ([2]; pH 1.2, 15 min): 470 ng/mL
Concentration (dissolution) ([2]; pH 1.2, 30 min): 640 ng/mL
Concentration (dissolution) ([2]; pH 1.2, 45 min): 510 ng/mL
Concentration (dissolution) ([2]; pH 1.2, 60 min): 1430 ng/mL
Concentration (dissolution) ([2]; pH 1.2, 90 min): 1360 ng/mL
Concentration (dissolution) ([2]; pH 1.2, 120 min): 4470 ng/mL
Concentration (dissolution) ([2]; pH 6.8, 5 min): 960 ng/mL
Concentration (dissolution) ([2]; pH 6.8, 10 min): 190 ng/mL
Concentration (dissolution) ([2]; pH 6.8, 15 min): 310 ng/mL
Concentration (dissolution) ([2]; pH 6.8, 30 min): 1110 ng/mL
Concentration (dissolution) ([2]; pH 6.8, 45 min): 310 ng/mL
Concentration (dissolution) ([2]; pH 6.8, 60 min): 900 ng/mL
Concentration (dissolution) ([2]; pH 6.8, 90 min): 970 ng/mL
Concentration (dissolution) ([2]; pH 6.8, 120 min): 1430 ng/mL

NS(=O)(=O)c1cc(C2(O)NC(=O)c3ccccc32)ccc1Cl (centres unmarked) [Chlorthalido]
RBC to Plasma Partitioning (KRBC/P) (Blood partitioning): 19.7

CC(=O)N1CCN(c2ccc(OCC3COC(Cn4ccnc4)(c4ccc(Cl)cc4Cl)O3)cc2)CC1 (centres unmarked) [Ketoconazole]
% Inhibition (Positive Control) (CYP3A): 94.5%

COc1ccc2[nH]c([S+]([O-])Cc3ncc(C)c(OC)c3C)nc2c1 (centres unmarked) [Omeprazole (OME), Omeprazole, reference compound]
% of OME-treated Cells (CYP1A2 mRNA): 100%

CCC1(c2ccccc2)C(=O)NC(=O)NC1=O [Phenobarbital (PB), Phenobarbital, reference compound]
% of PB-treated Cells (CYP2B6 mRNA): 100%

CO[C@H]1/C=C/O[C@@]2(C)Oc3c(C)c(O)c4c(O)c(c(/C=N/N5CCN(C)CC5)c(O)c4c3C2=O)NC(=O)/C(C)=C\C=C\[C@H](C)[C@H](O)[C@@H](C)[C@@H](O)[C@@H](C)[C@H](OC(C)=O)[C@@H]1C [Rifampicin (RIF), Rifampicin, reference compound]
Formazan Absorbance Mean (human hepatocytes): 1.37

CC[C@@]1(O)C(=O)OCc2c1cc1n(c2=O)Cc2cc3cc4c(cc3nc2-1)OCO4 [Test Article]
Avg. MF (Mutant Frequency) ([3]; Test Article 0.1 uM): 345 mutants/1×10^6 cells
Avg. SG ([3]; Test Article 0.1 uM): 29.1
Avg. MF (Mutant Frequency) ([3]; Test Article .01 uM): 125 mutants/1×10^6 cells
Avg. SG ([3]; Test Article .01 uM): 66.2

S=P(N1CC1)(N1CC1)N1CC1 [Thio-TEPA]
% Inhibition (Positive Control) (CYP2B6): 71.5%

O=P1(N(CCCl)CCCl)NCCCO1 (centres unmarked) [cyclophosphamide (CP), cyclophosphamide]
Average SG ([3]; 4 h, +S9, 15 μg/mL): 7.3
Day 1 Growth Cell Conc. ([3]; 4 h, +S9, 15 μg/mL): 4.79E+05 Cell/mL and 5.44E+05 Cell/mL
Day 2 Growth Cell Conc. ([3]; 4 h, +S9, 15 μg/mL): 1.29E+06 Cell/mL and 1.30E+06 Cell/mL
Relative Suspension Growth (%) ([3]; 4 h, +S9, 15 μg/mL): 52.7% and 58.8%
Suspension Growth (SG) ([3]; 4 h, +S9, 15 μg/mL): 5.9 and 7.7
Average SG ([3]; 4 h, +S9, 17.5 μg/mL): 4.9
Day 1 Growth Cell Conc. ([3]; 4 h, +S9, 17.5 μg/mL): 3.20E+05 Cell/mL and 3.86E+05 Cell/mL
Day 2 Growth Cell Conc. ([3]; 4 h, +S9, 17.5 μg/mL): 1.14E+06 Cell/mL and 1.25E+06 Cell/mL
Relative Suspension Growth (%) ([3]; 4 h, +S9, 17.5 μg/mL): 32.1% and 42.0%
Suspension Growth (SG) ([3]; 4 h, +S9, 17.5 μg/mL): 4.2 and 5.5
Avg. % of IMF Small Colony ([3]; 4 h summary, +S9, 15 μg/mL): 62.1%
Avg. IMF ([3]; 4 h summary, +S9, 15 μg/mL): 1000 ×10^−6
Avg. IMF Small Colony ([3]; 4 h summary, +S9, 15 μg/mL): 621 ×10^−6
Avg. RTG ([3]; 4 h summary, +S9, 15 μg/mL): 21.6%
Avg. % of IMF Small Colony ([3]; 4 h summary, +S9, 17.5 μg/mL): 58.6%
Avg. IMF ([3]; 4 h summary, +S9, 17.5 μg/mL): 1513 ×10^−6
Avg. IMF Small Colony ([3]; 4 h summary, +S9, 17.5 μg/mL): 880 ×10^−6
Avg. RTG ([3]; 4 h summary, +S9, 17.5 μg/mL): 6.7%

COS(C)(=O)=O [methyl methanesulfonate (MMS), methyl methanesulfonate]
Average SG ([3]; mouse, 24 h, 5 μg/mL): 48.2
Avg. % of IMF Small Colony ([3]; mouse, 24 h, 5 μg/mL): 52.4%
Avg. IMF (Induced Mutant Frequency) ([3]; mouse, 24 h, 5 μg/mL): 458 mutants/1×10^6 cells
Avg. IMF Small Colony ([3]; mouse, 24 h, 5 μg/mL): 240 mutants/1×10^6 cells
Avg. RTG (Relative Total Growth) ([3]; mouse, 24 h, 5 μg/mL): 38.7%
Relative Suspension Growth (%) ([3]; mouse, 24 h, 5 μg/mL): 62.5%
Average SG ([3]; mouse, 24 h, 8 μg/mL): 26.2
Avg. % of IMF Small Colony ([3]; mouse, 24 h, 8 μg/mL): 54.7%
Avg. IMF (Induced Mutant Frequency) ([3]; mouse, 24 h, 8 μg/mL): 750 mutants/1×10^6 cells
Avg. IMF Small Colony ([3]; mouse, 24 h, 8 μg/mL): 417 mutants/1×10^6 cells
Avg. RTG (Relative Total Growth) ([3]; mouse, 24 h, 8 μg/mL): 15.5%

C[C@]12CC[C@H]3[C@@H](CCC4=CC(=O)CC[C@@]43C)[C@@H]1CC[C@@H]2O [testosterone, reference compound]
hepatocyte CLint (in vitro [4]; both, human, hepatocytes, pH 7.4): 212 µL/min/1e6 cells
half-life (in vitro [4]; cryopreserved human hepatocytes, control compound): 2.2 min
CLint [5]: 0.0478 ml/min/mg protein
half-life [5]: 29 min
microsomal CLint (in vitro [1]): 20.7 µL/min/mg

C/C=C/C[C@@H](C)C(=O)[C@H]1C(=O)N[C@@H](C(C)C)C(=O)N(C)CC(=O)N(C)[C@@H](CC(C)C)C(=O)N[C@@H](C(C)C)C(=O)N(C)[C@@H](CC(C)C)C(=O)N[C@@H](C)C(=O)N[C@H](C)C(=O)N(C)[C@@H](CC(C)C)C(=O)N(C)[C@@H](CC(C)C)C(=O)N(C)[C@@H](C(C)C)C(=O)N1C [valspodar, reference compound]
P-gp Inhibition Potential Classification (P-gp): Positive (ER≥2.0 without inhibitor, and reduced by ≥50% with inhibitor: Positive)
